Measurements reported in the supplement of paper PMC10307832.

Experiments:
Assay in all cases: relative viability (nuclei count vs DMSO), 5 days (fraction); higher = more cells survive
Ispinesib + Luminespib = compound: Cc1ccc(C(=O)N(CCCN)[C@@H](c2nc3cc(Cl)ccc3c(=O)n2Cc2ccccc2)C(C)C)cc1 [Ispinesib] + CCNC(=O)c1noc(-c2cc(C(C)C)c(O)cc2O)c1-c1ccc(CN2CCOCC2)cc1 [Luminespib] (partner 0.01 µM)
In short: (§1)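 The day after seeding in 1536-well plates, lung cancer cell lines were treated by pin tool with a single drug, or with a fixed anchor-drug dose together with five library-drug doses (not always all listed) in √10 steps. After 5 days, a combined fix-and-stain solution (final 0.05% Triton X-100, 1% formaldehyde, 1 ug/ml Hoechst) was added. Nuclei counted on 4× images gave relative viability as treated counts over vehicle counts, reported as the median of duplicate plates.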

Linsitinib + Olaparib = compound: C[C@]1(O)C[C@@H](c2nc(-c3ccc4ccc(-c5ccccc5)nc4c3)c3c(N)nccn32)C1 [Linsitinib] + O=C(c1cc(Cc2n[nH]c(=O)c3ccccc23)ccc1F)N1CCN(C(=O)C2CC2)CC1 [Olaparib] (partner 8 µM)
In short: as §1

Linsitinib + Tozasertib = compound: C[C@]1(O)C[C@@H](c2nc(-c3ccc4ccc(-c5ccccc5)nc4c3)c3c(N)nccn32)C1 [Linsitinib] + Cc1cc(Nc2cc(N3CCN(C)CC3)nc(Sc3ccc(NC(=O)C4CC4)cc3)n2)n[nH]1 [Tozasertib] (partner 0.1 µM)
In short: as §1

Ispinesib + Dasatinib = compound: Cc1ccc(C(=O)N(CCCN)[C@@H](c2nc3cc(Cl)ccc3c(=O)n2Cc2ccccc2)C(C)C)cc1 [Ispinesib] + Cc1nc(Nc2ncc(C(=O)Nc3c(C)cccc3Cl)s2)cc(N2CCN(CCO)CC2)n1 [Dasatinib] (partner 0.075 µM)
In short: as §1

Cell Line	relative viability (Ispinesib + Luminespib; first compound 0.001 µM)	relative viability (Ispinesib + Luminespib; first compound 0.003162 µM)	relative viability (Ispinesib + Luminespib; first compound 0.01 µM)	relative viability (Ispinesib + Luminespib; first compound 0.03162 µM)	relative viability (Ispinesib + Luminespib; first compound 0.1 µM)	relative viability (Linsitinib + Olaparib; first compound 0.01 µM)	relative viability (Linsitinib + Olaparib; first compound 0.03162 µM)	relative viability (Linsitinib + Olaparib; first compound 0.1 µM)	relative viability (Linsitinib + Olaparib; first compound 0.3162 µM)	relative viability (Linsitinib + Olaparib; first compound 1 µM)	relative viability (Linsitinib + Tozasertib; first compound 0.01 µM)	relative viability (Linsitinib + Tozasertib; first compound 0.03162 µM)	relative viability (Linsitinib + Tozasertib; first compound 0.1 µM)	relative viability (Linsitinib + Tozasertib; first compound 0.3162 µM)	relative viability (Linsitinib + Tozasertib; first compound 1 µM)	relative viability (Ispinesib + Dasatinib; first compound 0.001 µM)	relative viability (Ispinesib + Dasatinib; first compound 0.003162 µM)	relative viability (Ispinesib + Dasatinib; first compound 0.01 µM)	relative viability (Ispinesib + Dasatinib; first compound 0.03162 µM)	relative viability (Ispinesib + Dasatinib; first compound 0.1 µM)
NCI-H1651	0.989	0.88	0.859	1.23	0.404	0.18	0.169	0.191	0.171	0.178	0.619	0.646	0.714	0.484	0.513	0.655	0.497	0.479	0.334	0.136
EBC-1	–	–	–	–	–	0.664	0.851	0.703	0.623	0.691	–	–	–	–	–	–	–	–	–	–
COR-L 105	0.737	0.666	0.808	0.349	0.439	0.762	0.635	0.685	0.538	0.516	0.421	0.324	0.356	0.298	0.309	0.462	0.303	0.31	0.195	0.238
RERF-LC-KJ	1.49	1.2	0.958	0.259	0.442	0.933	0.884	0.841	0.847	0.538	0.508	0.558	0.573	0.523	0.441	0.835	0.697	0.448	0.281	0.391
